80 compounds from PMC12040169 (PLOS Biology, 2025) can be followed below.

A short description of this data set: in vitro. Conditions: human, hela cells, % viability.
Turning to `COCCN(Cc1cnn(C)c1)C(=O)Nc1cccc2nc(C)ccc12` [CBK306529], the viability at 28.5 h, 10 µM amounted to 106%.

Regarding `Cc1cnc(C)c(N2CCN(C(=O)NCCSc3nncn3C)CC2)n1` [CBK306531], the viability at 28.5 h, 10 µM worked out at 92.9%. As to `Cc1cc(O)n2nc(CC(=O)NCCCn3c(C)cccc3=O)nc2n1` [CBK306532], the viability at 28.5 h, 10 µM is 97.1%.

Turning to `CC(C)c1cc(C(=O)N2CCNC(c3ccccc3)C2)nc2ncnn12` (centres unmarked) [CBK306533], the viability at 28.5 h, 10 µM stood at 91.9%. For the compound `Cc1nc(C)c(C(=O)Nc2nn(C)c3cccc(N4CCOCC4)c23)o1` [CBK306534], the viability at 28.5 h, 10 µM amounted to 83.8%. With `CCn1c(CC2CCN(C(=O)CCCn3cnnn3)CC2)nn(C)c1=O` [CBK306537] the figure was 102%; with `CCCOC1CCCN(C(=O)c2ccc(-c3ccc(Cl)cn3)cc2)C1` (centres unmarked) [CBK306540], 89.5%; with `COC1CCCN(Cc2cncn2C2CCCCC2)C1` (centres unmarked) [CBK306542], 101%. With `Cc1ccccc1N1CCC(CNC(=O)CCc2ccnn2C)C1` (centres unmarked) [CBK306543] the figure was 89%.

As for `CC(C)CC(NC(=O)N1CCOc2ccc(Cl)cc2C1)c1ncnn1C` (centres unmarked) [CBK306544], the viability at 28.5 h, 10 µM is 115%. With `Cc1cccn2c(CN3CCCC(O)C3)c(C(=O)N3CCOCC3)nc12` (centres unmarked) [CBK306545] the figure was 72.5%; with `Cc1cccn2c(CN3CCC(O)CC3)c(C(=O)N3CCOCC3)nc12` [CBK306546], 104%. With `O=C(Cc1ccsc1)N1CCn2nc(C(O)Cc3ccccc3)cc2C1` (centres unmarked) [CBK306547] the figure was 95.9%.

For the compound `CCCc1nc(C(=O)NC2CC(=O)N(CCc3ccc(F)cc3)C2)cs1` (centres unmarked) [CBK306548], the viability at 28.5 h, 10 µM is 105%. Take `Cc1cc(C)n(CCCC(=O)N2CCOCC(O)(CN3CCCC3)C2)n1` (centres unmarked) [CBK306550]: the viability at 28.5 h, 10 µM is 101%. `CC(NC(=O)CCc1cc2n(n1)CCNC2)c1cn2ccsc2n1` (centres unmarked) [CBK306551]: the viability at 28.5 h, 10 µM came out at 91.2%. With `CC(C)c1cc(C(=O)N[C@@H]2CCOC[C@H]2Oc2ccc(CO)cc2)on1` [CBK306554] the figure was 101%. As to `COC(CNC(=O)N(C)Cc1nncn1C(C)C)c1cccs1` (centres unmarked) [CBK306556], the viability at 28.5 h, 10 µM was 90.8%. As to `Cc1cc(C(F)(F)F)n2ncc(C(=O)N3CCCC3c3ccco3)c2n1` (centres unmarked) [CBK306557], the viability at 28.5 h, 10 µM turned out to be 93.5%.

With `OC1(CN2CCCC2)COCCN(c2nnc(-c3ccccc3)s2)C1` (centres unmarked) [CBK306558], the viability at 28.5 h, 10 µM turned out to be 97.5%.

As to `N#Cc1ccnc(N2CCC3(CCCN(CC4CCCCC4)C3=O)C2)c1` (centres unmarked) [CBK306561], the viability at 28.5 h, 10 µM was 96.9%. Turning to `CCn1c(=O)oc2cc(NC(=O)NCCN3CCCCC3CO)ccc21` (centres unmarked) [CBK306565], the viability at 28.5 h, 10 µM is 107%. In the case of `CC(=O)Nc1ccc(CNC(=O)CN(C)CC2CCCCO2)cc1` (centres unmarked) [CBK306567] it was 89.6%; in that of `CCCn1cnnc1C(C)NS(=O)(=O)c1cccc(C(=O)N2CCC2)c1` (centres unmarked) [CBK306569], 103%; in that of `CC(C)c1cc(C(=O)N2CC(N3CCOCC3)C2)nc2ncnn12` [CBK306572], 86.9%.

Turning to `OC1CC(c2cc(NCCc3nc4ccccc4o3)ncn2)C1` (centres unmarked) [CBK306573], the viability at 28.5 h, 10 µM came to 99.9%. With `Cc1cc(C(=O)NCc2cccnc2N(C)C2CCCCC2)nn1C` [CBK306577] the figure was 69.6%; with `Cc1cccc(OCC2CCCN(C(=O)C3(Cn4cccn4)CC3)C2)c1` (centres unmarked) [CBK306578], 102%; with `CC(C)c1cc(C(=O)N(Cc2ccccn2)CC2CCCO2)on1` (centres unmarked) [CBK306579], 95.3%. In the case of `Cc1cc(CN(C)c2nccc(N3CCN[C@H]4CS(=O)(=O)C[C@H]43)n2)no1` [CBK306580] it was 109%; in that of `COc1cccc2ncn(CCNS(C)(=O)=O)c(=O)c12` [CBK306583], 81%.

As to `Cc1oc2c(c1C(=O)NCCSc1nncn1C)C(=O)CCC2` [CBK306589], the viability at 28.5 h, 10 µM amounted to 92.5%.

As to `O=C(O)C1(Oc2ccc3ncccc3c2)CCN(C2CCCCC2)CC1` [CBK306591], the viability at 28.5 h, 10 µM turned out to be 92.4%. Consider `Cn1nnnc1SCCNC(=O)Nc1cccc(N2CCOC2=O)c1` [CBK306593], for which the viability at 28.5 h, 10 µM turned out to be 84.4%.

For the compound `CC(Cn1cncn1)NS(=O)(=O)c1cccc(C(=O)N2CCCCC2)c1` (centres unmarked) [CBK306594], the viability at 28.5 h, 10 µM turned out to be 86.7%. For the compound `CCC(O)Cn1nc(CCSC)nc1-c1cc(=O)n(C)c2ccccc12` (centres unmarked) [CBK306596], the viability at 28.5 h, 10 µM was 83.6%.

Regarding `CCCN1CC(NS(=O)(=O)c2ccnn2CCC)CC1=O` (centres unmarked) [CBK306598], the viability at 28.5 h, 10 µM came to 92.9%. Regarding `CCc1nn2c(=O)cc(CN3C(=O)COc4cccnc43)nc2s1` [CBK306599], the viability at 28.5 h, 10 µM is 88.9%. In the case of `CC(C)Cn1cncc1CN1C(=O)CC2(CCCC2)CC1=O` [CBK306600] it was 116%; in that of `CCOCC1CCCN1C(=O)Nc1ccc2sc(C(=O)N(C)C)cc2c1` (centres unmarked) [CBK306601], 98.3%. On to `CCc1ccccc1-c1cccc(C(=O)NCC(O)CN(C)C)c1` (centres unmarked) [CBK306604], for which the viability at 28.5 h, 10 µM worked out at 92.9%. Turning to `COCCN(C)C(=O)c1cn2cc(-c3cc(C)oc3C)n(C)c(=O)c2n1` [CBK306605], the viability at 28.5 h, 10 µM is 80.5%.

With `CNc1cc(C(=O)N[C@@H]2CCOC[C@H]2Oc2ccc(CO)cc2)ccn1` [CBK306606], the viability at 28.5 h, 10 µM was determined as 98.1%. In the case of `CCc1csc(CCNc2ccc(-c3nc(C4CC4)no3)cn2)n1` [CBK306608] it was 91.3%. With `CCCNC(=O)c1ccc(C)c(NC(=O)N[C@@H](CO)c2ccccc2)c1` [CBK306609] the figure was 96.2%; with `Cc1nc(CCCn2cnc3cnccc3c2=O)sc1C` [CBK306610], 102%; with `O=C(Cc1cn2ccsc2n1)NCCCN1CCCc2ccccc21` [CBK306611], 101%. In the case of `CCCn1ncc(CN2CCC3(CC2)CC(C(=O)O)N(C(C)=O)C3)c1C` (centres unmarked) [CBK306612] it was 86.7%; in that of `COc1nccc(N2CCN(C(=O)C3CC3)CC(O)C2)c1C#N` (centres unmarked) [CBK306613], 79.1%. With `CCCCSc1nc(N)cc(N2CCC(C(=O)N3CCOCC3)CC2)n1` [CBK306619], the viability at 28.5 h, 10 µM worked out at 96.8%.

With `CN(C)C(=O)CC(O)c1cc2n(n1)CCN(Cc1cccs1)C2` (centres unmarked) [CBK306620], the viability at 28.5 h, 10 µM came out at 113%. On to `COc1ccc2c(c1)cc(C(=O)NCCN1CCCCC1CO)n2C` (centres unmarked) [CBK306621], for which the viability at 28.5 h, 10 µM was determined as 114%. Turning to `CN(CCC1CCOCC1)c1nc2c(c(=O)[nH]1)Cc1ccccc1OC2` [CBK306622], the viability at 28.5 h, 10 µM came to 96.2%. As for `Cc1nc(N2CCN(C)CC2)ncc1C(=O)NCCSc1cnn[nH]1` [CBK306623], the viability at 28.5 h, 10 µM was 88.2%. With `CCOCCC(=O)NC1CCCc2nc(N3CCC(CO)CC3)ncc21` (centres unmarked) [CBK306624], the viability at 28.5 h, 10 µM stood at 92.8%. In the case of `Cc1nc(CC(=O)Nc2nn(C)c3cccc(N4CCOCC4)c23)cs1` [CBK306627] it was 89.7%; in that of `Cc1ccn2cc(CNC(=O)CCC(C)N3CCN(C)CC3)nc2c1` (centres unmarked) [CBK306628], 97.2%. Regarding `NC1CC(c2cc(NCc3cn4ccccc4n3)ncn2)C1` (centres unmarked) [CBK306631], the viability at 28.5 h, 10 µM was 112%. Take `CCCn1nc(COc2cccc(F)c2)nc1C1CCN(C(C)=O)CC1` [CBK306637]: the viability at 28.5 h, 10 µM was 97.7%. With `CO[C@@]12CC[C@H](OCC(=O)O)C[C@@H]1N(Cc1c(C)cnn1C)CC2` [CBK306638] the figure was 95.6%; with `COc1ccnc(N2CCN(C(=O)c3cccc4c3NCCC4)CC2)n1` [CBK306639], 109%. Regarding `Cc1cc(=O)n(CC(=O)NC(Cc2ccncc2)[C@H]2C[C@H](O)C2)nc1C` (some centres unmarked) [CBK306641], the viability at 28.5 h, 10 µM was found to be 101%.

As to `COc1cncc(C(NC(=O)Cc2cn3ccsc3n2)[C@H]2C[C@H](O)C2)c1` (some centres unmarked) [CBK306642], the viability at 28.5 h, 10 µM was 97.2%.

With `CC(=O)c1cccc(-c2nc(CC3CCN(C)CC3)nn2CCO)c1` [CBK306645], the viability at 28.5 h, 10 µM was 98.3%. In the case of `CN(C)S(=O)(=O)NC1CC(C)(C)Cc2c1cnn2-c1ccc(F)cc1` (centres unmarked) [CBK306646], the viability at 28.5 h, 10 µM worked out at 112%.

In the case of `CCCCC1C(=O)N(C)CCN1C(=O)NCc1cn2ccc(C)cc2n1` (centres unmarked) [CBK306648], the viability at 28.5 h, 10 µM came to 91.8%. For the compound `COCCn1ccnc1C1CCN(C(=O)Cc2ccc(O)c(F)c2)CC1` [CBK306649], the viability at 28.5 h, 10 µM was 82.6%.

With `COc1cccc2ncn(CCCn3ccnn3)c(=O)c12` [CBK306650], the viability at 28.5 h, 10 µM stood at 103%. With `COCCN(Cc1cnn(C)c1)C(=O)c1cc(=O)c2cccc(F)c2[nH]1` [CBK306651], the viability at 28.5 h, 10 µM was found to be 83.8%. For `CCc1nccn1CCC(=O)NC1CCCN(Cc2ccccc2F)C1` (centres unmarked) [CBK306652], the viability at 28.5 h, 10 µM worked out at 78.9%. With `CC(C)(O)C1CCCN(C(=O)c2cc(COc3cccc(F)c3)[nH]n2)C1` (centres unmarked) [CBK306653] the figure was 99.9%. With `CCN(CC)CCCNc1nccc(-c2cn(C)nc2C)n1` [CBK306654] the figure was 97.4%. As to `CCc1nccn1CCCNC(=O)Nc1cc(-c2cccnc2)nn1C` [CBK306657], the viability at 28.5 h, 10 µM turned out to be 88.3%. In the case of `CCN(CCc1nc2cc(OC)ccc2[nH]1)C(=O)c1cc(C#N)cn1C` [CBK306658] it was 90.5%; in that of `COCC(=O)Nc1ccc(Cl)c(NC(=O)NCCN2CCCC2=O)c1` [CBK306663], 87.9%; in that of `COCCn1c(CO)nnc1[C@H]1C[C@H](NC(=O)c2ccc(F)cc2F)C1` [CBK306665], 102%. In the case of `Cc1c(CN2CCC3(CC2)CC(c2ccccc2)CN(C)C3)cnn1C` (centres unmarked) [CBK306666] it was 105%; in that of `Cn1c(CO)nnc1[C@H]1C[C@@H](NC(=O)COc2ccc(Cl)c(Cl)c2)C1` [CBK306667], 101%; in that of `Cc1cc(C(=O)NCc2cccnc2N(C)C2CCCCC2)[nH]n1` [CBK306668], 104%. With `Cc1ccn2c(C(=O)N(C)CCc3noc(C(C)C)n3)nnc2n1` [CBK306670], the viability at 28.5 h, 10 µM came out at 89.3%.

By viability is commonly meant a read-out of living cells in per cent, often relative to untreated cells.
